A short description of series [1]: In vitro diffusion (permeation and accumulation) studies through human skin, PermeGear flow through diffusion apparatus.
A short description of series [2]: Solubility in the pressure sensitive adhesive matrix. Format: physicochemical. Particulars: Durotak Elite 87-900A PSA. Here is the method:
Thus, the suspension was mixed and poured to 20 mil thickness.
Thus, the suspension and 3 solutions of NTX prodrugs were mixed and poured to 20 mil thickness.
Three patch formulations for testing were prepared. The patch formulations included naltrexone-HCl, naltrexone-HCl coated with cellulose acetate phthalate and an isobutyryl ester prodrug of naltrexone. The naltrexone-HCl and cellulose acetate phthalate complex was prepared using the methods described in Example 2. The patch formulations also included buprenorphine in a concentration of 2% w/w or 20 mg of buprenorphine per […] of pressure sensitive adhesive. […] The PSA admixture was poured onto Scotch PAK 1022 Release Liner 3.0 mil 3M™, spread to an even 20 mil thickness with an 8 path wet film applicator by Gardco®. The matrices were allowed to dry at 40° C. and finally the Cotran 9715 Film 3M™ as a backing membrane was applied.

Series [3] can be described thus: Release of buprenorphine and naltrexone from patch placed in methanol or ethanol. Format: physicochemical. The following applies: patch with 2% buprenorphine. The text has this:
Methanol and ethanol are two media that could potentially be used to dissolve a patch for the purpose of extracting the opiate in the patch by a potential abuse. Thus, an antagonist complex such as NTX-CAP should release in a rapid manner in order to be able to block the opiates effect if injected or ingested. FIG. 6 is a representative profile of the release characteristics of naltrexone coated with cellulose acetate phthalate in methanol and ethanol.
This ratio corresponds to the amount of naltrexone necessary to cause a narcotic blockade at the opiate receptors.

Setting [4] is: Example 7, NTX-CAP and buprenorphine base bi-layer patch.
[5] abbreviates: Example 7, NTX•HCl and buprenorphine base bi-layer patch.
Where [6] appears, read: Example 7, NTX•HCl and buprenorphine base bi-layer patch, 24 h.
[7] abbreviates: Example 7, NTX•HCl and buprenorphine base bi-layer patch, after 24 h.
Where [8] appears, read: Example 8, NTX-CAP and buprenorphine base bi-layer patch.
Where [9] appears, read: Example 8, NTX•HCl and buprenorphine base bi-layer patch, 24 h.
Setting [10] is: Example 8, NTX•HCl and buprenorphine base bi-layer patch, after 24 h.
The mark [11] stands for this setting: Example 8, NTX•HCl and buprenorphine bi-layer patch, n=1.

Entries after “also recorded” stand apart in the source; their conditions may differ. Counter-ions that a name gives are not always drawn.

For the compound `CO[C@@]12CC[C@@]3(C[C@@H]1[C@](C)(O)C(C)(C)C)[C@H]1Cc4ccc(O)c5c4[C@@]3(CCN1CC1CC1)[C@H]2O5` [BUP from bi-layer, buprenorphine], the Flux in series [1] (setting [4]) turned out to be 0.39 ± 0.05 nmol/cm^2/h; in series [1] (setting [5]) it was 0.23 ± 0.06 nmol/cm^2/h; in series [1] (setting [8]), 1.05 ± 0.65 nmol/cm^2/h; in series [1] (setting [11]) it was 0.6 NA* nmol/cm^2/h. Further, the Lag time turned out to be 10.6 ± 0.28 h in series [1] (setting [4]), 10.0 ± 2.6 h in series [1] (setting [5]), 8.2 ± 0.6 h in series [1] (setting [8]) and 9.5 h in series [1] (setting [11]). Moreover, the Cumulative came out at 9.3 ± 1.2 nmol in series [1] (Example 7, NTX-CAP and buprenorphine base bi-layer patch, 24 h); 5.5 ± 0.7 nmol in series [1] (setting [6]); 24.6 ± 10.8 nmol in series [1] (setting [8]); 18.5 nmol in series [1] (setting [9]). Moreover, the Drug in skin was 0.43 ± 0.01 µmol/g in series [1] (Example 7, NTX-CAP and buprenorphine base bi-layer patch, after 24 h); 0.35 ± 0.01 µmol/g in series [1] (setting [7]); 0.50 ± 0.04 µmol/g in series [1] (setting [8]); 0.37 µmol/g in series [1] (setting [10]). Further, the “buprenorphine flux, times higher than naltrexone” value in series [1] (setting [5]) was found to be 11.2 times. In series [1] (setting [8]), this compound returned a total permeation of 11.65 µg. Further, in series [2], the “solubility in pressure sensitive adhesive (matrix)” value (shortened to “solubility”) is listed as “freely soluble”.

Turning to `O=C1CC[C@@]2(O)[C@H]3Cc4ccc(O)c5c4[C@@]2(CCN3CC2CC2)[C@H]1O5` [NTX•HCl, naltrexone hydrochloride], the “Release ratio of BUP:NTX” value is reported as 9.9 in series [3] (ethanol, 0 min); 7.2 in series [3] (ethanol, 10 min); 4.6 in series [3] (ethanol, 30 min); 4.1 in series [3] (ethanol, 60 min); 7.8 in series [3] (methanol, 0 min); 6.5 in series [3] (methanol, 10 min). Besides, the “Release ratio of BUP:NTX” value in series [3] (methanol, 30 min) is 6.5; in series [3] (methanol, 60 min) it was 6.1. Moreover, the Flux in series [1] (setting [5]) came to 0.02 ± 0.03 nmol/cm^2/h; in series [1] (setting [11]) it was 0.0 NA* nmol/cm^2/h. The same compound registered a Lag time in series [1] (setting [5]) of 14.6 NA* h. In addition, the Cumulative in series [1] (Example 7, NTX•HCl and buprenorphine base bi-layer patch, 24 h, listed as NTX•HCl from bi-layer, hydrochloride) was found to be 0.3 ± 0.5 nmol; in series [1] (Example 8, NTX•HCl and buprenorphine base bi-layer patch, 24 h, listed as NTX•HCl from bi-layer, hydrochloride), 2.3 nmol. Further, the figures for the Drug in skin in series [1] (setting [7]) and in series [1] (setting [10]) were 0.29 ± 0.03 µmol/g and 0.30 µmol/g, respectively. Moreover, the “solubility” value in series [2] (hydrochloride) is listed as “Neither NTX.HCl nor CAP-NTX were soluble; also recorded: not soluble”; in series [2] (listed as naltrexone-HCl, hydrochloride), “suspensions”.

Regarding `O=C1CC[C@@]2(O)[C@H]3Cc4ccc(O)c5c4[C@@]2(CCN3CC2CC2)[C@H]1O5` [naltrexone], the Cumulative is recorded as 7.3 nmol in series [1] (Example 6, bi-layer patch with NTX only, 24 hours); 0.3 nmol in series [1] (setting [6]); 2.3 nmol in series [1] (setting [9]). Moreover, the “solubility” value in series [2] was “not soluble”.
